Assay results as given in publication PMC5063381, “Characterization of the Neisseria meningitidis Helicase RecG” (PLoS ONE, 2016).

T1: RecGNm (Neisseria meningitidis, UniProt Q9JY17)
T1 construct: gene recG; ORF in pET28b(+) (pGTB1, NdeI/XhoI), N-terminal 6xHis-tag, expressed in E. coli ER2566; Ni-NTA and Superdex 75
T1 sequence (Q9JY17 1-680): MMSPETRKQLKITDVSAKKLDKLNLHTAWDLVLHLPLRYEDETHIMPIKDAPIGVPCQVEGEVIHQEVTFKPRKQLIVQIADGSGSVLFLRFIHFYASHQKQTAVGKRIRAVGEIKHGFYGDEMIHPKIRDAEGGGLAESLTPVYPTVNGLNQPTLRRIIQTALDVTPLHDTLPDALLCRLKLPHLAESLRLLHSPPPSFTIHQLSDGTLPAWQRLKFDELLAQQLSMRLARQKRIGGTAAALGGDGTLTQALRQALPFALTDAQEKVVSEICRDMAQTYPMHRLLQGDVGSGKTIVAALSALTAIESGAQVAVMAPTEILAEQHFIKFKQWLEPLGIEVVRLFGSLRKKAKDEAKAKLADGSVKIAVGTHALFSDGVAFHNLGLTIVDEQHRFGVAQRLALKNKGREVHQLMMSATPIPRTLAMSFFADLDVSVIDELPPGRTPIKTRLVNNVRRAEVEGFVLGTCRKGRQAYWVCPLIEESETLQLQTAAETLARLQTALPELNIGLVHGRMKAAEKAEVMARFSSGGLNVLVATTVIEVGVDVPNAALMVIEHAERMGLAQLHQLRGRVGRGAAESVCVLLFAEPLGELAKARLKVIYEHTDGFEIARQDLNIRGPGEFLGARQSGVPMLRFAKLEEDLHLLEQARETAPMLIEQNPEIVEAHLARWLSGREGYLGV

T2: Neisseria meningitidis DNA repair/recombination helicase RecG (Neisseria meningitidis strain MC58, UniProt Q9JY17 1-680)
T2 construct: RecG helicase of Neisseria meningitidis strain MC58; the ORF was amplified from genomic DNA and cloned into pET28b(+) between XhoI and NdeI (plasmid pGTB1); also called RecGNm; Nm RecG; source: E. coli ER2566, purified (Ni-NTA, gel filtration on Superdex 75)
T2 sequence (looked up): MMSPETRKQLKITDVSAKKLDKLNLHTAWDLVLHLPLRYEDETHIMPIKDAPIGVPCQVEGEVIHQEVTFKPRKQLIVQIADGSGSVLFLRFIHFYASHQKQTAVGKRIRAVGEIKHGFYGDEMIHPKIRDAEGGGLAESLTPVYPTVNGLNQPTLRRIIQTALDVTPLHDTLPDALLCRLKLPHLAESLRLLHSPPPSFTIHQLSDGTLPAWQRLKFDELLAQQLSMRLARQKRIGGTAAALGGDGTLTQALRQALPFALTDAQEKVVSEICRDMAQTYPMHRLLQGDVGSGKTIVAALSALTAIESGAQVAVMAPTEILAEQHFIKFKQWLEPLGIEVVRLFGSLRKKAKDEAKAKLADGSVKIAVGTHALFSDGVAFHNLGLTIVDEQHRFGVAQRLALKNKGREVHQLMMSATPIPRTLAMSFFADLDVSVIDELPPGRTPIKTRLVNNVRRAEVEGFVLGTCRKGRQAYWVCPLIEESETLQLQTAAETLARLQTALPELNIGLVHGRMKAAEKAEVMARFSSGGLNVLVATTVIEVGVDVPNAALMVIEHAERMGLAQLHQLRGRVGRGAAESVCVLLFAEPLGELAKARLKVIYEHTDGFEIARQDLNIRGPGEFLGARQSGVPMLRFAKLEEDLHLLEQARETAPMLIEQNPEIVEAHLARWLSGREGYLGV


Legend:
RecGNm = target: T1, RecGNm; experiment: TLC ATPase assay with [gamma-32P]ATP; format: biochemical; details: 100 nM DNA cofactor (branched DNA), 2 mM MgCl2, pH 7.5, 37 °C; labelled compound as tracer
[1] = target: T2, Neisseria meningitidis DNA …; experiment: MST; 21 nM RED-NHS labelled SSBNm, RecGNm titrated; 20 mM HEPES pH 7.5, 300 mM NaCl, 0.05% Tween 20, 0.1% Pluronic F-127, 0.1% PEG 8000, 2 mM DTT; 22°C, 40% MST power; details: both partners purified

Molecule | % ATP hydrolysis (RecGNm) | Kd [1]
Nc1ncnc2c1ncn2[C@@H]1O[C@H](COP(=O)(O)OP(=O)(O)OP(=O)(O)O)[C@@H](O)[C@H]1O [ATP] | RecGNm displayed comparable capacity of ATP hydrolysis in the presence of different types of branched | –
Neisseria meningitidis single-stranded DNA-binding protein SSB (natural protein, Neisseria meningitidis strain MC58, UniProt P66848 1-174, looked up, Monolith NT Protein Labeling Kit RED-NHS dye, degree of labelling 0.65 (in the MST only), It was unlabelled in the gel filtration and RED-NHS labelled in the MST; also called SSBNm; source: plasmid pEH1 (pQE-30 harboring ssb from Nm MC58)) MSLNKVILIGRLGRDPEVRYMPNGEAVCNFSVATSETWNDRNGQRVERTEWHNITMYRKLAEIAGQYLKKGGLVYLEGRIQSRKYQGKDGIERTAYDIVANEMKMLGGRNENSGGAPYEEGYGQSQEAYQRPAQQSRQPASDAPSHPQEAPAAPRRQPVPAAAPVEDIDDDIPF | – | 558 ± 139 nM
